According to US7932286B2, “Method for treating colonic viscerosensitivity and spasticity” (priority 2007, dated 2011):

Test system: colonic viscerosensitivity and spasticity induced by colonoscopy
Experiment: Video-endoscopic colonoscopy after oral pre-treatment, individual case studies
Format: in vivo, human
Description: The patient had received a complete colonoscopy three years before in a hospital based gastro-intestinal unit, and this experience left them very anxious concerning the need for a repeat examination. The occurrence of pain during the procedure as well as the discomfort lasting few hours following the colonoscopic examination, despite parenteral sedation/analgesia, was still vivid in their memories. They wanted to negotiate an alternate diagnostic procedure such as a air-contrast barium enema. […] They were instructed to completed this pharmacological preparation by taking two Fleet® Phospho-soda 45 ml vials with five or six glasses of liquid one in the evening before the examination, and one in the morning two hours before the examination to clean and prepare “clean-rep” the colon. They presented alone to the endoscopy clinic and they were appropriately positioned on their left side on the examination table, and the video-endoscopic colonoscopy was initiated by the endoscopist. The colonoscopy was easily completed to the caecum in 14 minutes. […] The whole colonic examination including the accurate examination of the colon upon retraction of the instrument lasted a total of 25 minutes and was negative for mucosal lesions and for endoluminal polypoid formations. The patient then dressed up and walked to the endoscopist's office to receive the good results of the examination. They were asked several questions on their experience of the new pharmacological preparation as compared to their previous hospital-based unit experience with parenteral sedation/analgesia. […] The endoscopist and the assistant nurse were very satisfied with the ease and shortness of the completed procedure.
As part of a complete investigation, a colonoscopy was planned. They were prescribed Trimebutine maleate 200 mg tablets to be taken orally three times a day for three days before the scheduled examination. They were instructed to complete the pharmacological preparation by taking two Fleet® Phospho-soda 45 ml vials with five or six glasses of liquid, one in the evening before the examination, and one in the morning two hours before the examination to clean and prepare “clean-prep” the colon. They presented to the endoscopy unit with doubts that they could sustain the planned examination without any other drug preparation, having seen in their career many patients having barely tolerated this procedure of full colonoscopy, even after having received before the examination meperidine and midazolam intravenously. They also remembered the “stress experienced by the endoscopist and the assistant nurse working at completing the examination rapidly and successfully reaching the caecum in these patients”. Nonetheless, they consented at trying to receive the examination without further pharmacological preparation, with the promise by the physician that the procedure would be interrupted at their request in the case that they could not tolerate the pain or discomfort. After appropriately positioning the patient on their left side, the instrument was delicately introduced in their rectum, and the progression of the instrument gently initiated. They asked to have their head elevated with a pillow so they could see the video monitor and watch the video-endoscopic recording of their examination. […] The physician and the nurse were surprised by the fact that such a patient presenting a clinical irritable bowel syndrome could experience so little discomfort during the examination since these patients characteristically are chronically suffering from a very low threshold of viscerosentivity with solid or gaseous distension of the colon. After the procedure, they commented that they would accept to repeat the examination any time, and would not hesitate to recommend this pharmacological preparation to patients needing complete colonoscopy, and would be ready to reassure them that there were no more reasons to fear to receive such examination.

[1] = Example 1, patient, 200 mg tablets orally three times a day for three days before examination
[2] = Example 2, patient with clinical irritable bowel syndrome, 200 mg tablets orally three times a day for three days

Trimebutine maleate
recovery after the procedure (Example 1, patient): capable to drive home by themself without any assistance or recovery time
colonic spastic contractions during colonoscopy [1]: No colonic spastic contractions occurred
duration of whole colonic examination including retraction of the instrument [1]: 25 min
pain or discomfort generated by air-distension of the colon [1]: did not generate pain or discomfort
time in which colonoscopy was completed to the caecum (Example 1, patient, 200 mg tablets orally three times a day for three days before examination, no sedation): 14 min
patient-reported pain and discomfort during the procedure (Example 1, patient, questioned after the examination): did not experience any pain and very mild discomfort
discomfort experienced by the patient during the examination [2]: only mild but perfectly tolerable discomfort
progression of the instrument in the patient [2]: easy, painless
spastic contractions during colonoscopy [2]: No spastic contractions delayed the progression of the instrument
time in which the caecum was reached (Example 2, patient with clinical irritable bowel syndrome, 200 mg tablets orally three times a day for three days before examination, no sedation): 12 min
